ChEMBL document CHEMBL1136374, “Inactivation of S-adenosyl-L-homocysteine hydrolase with novel 5'-thioadenosine derivatives. Antiviral effects” (Bioorg Med Chem Lett, 2003)
≈ marks a conversion by molar mass, not a printed value.

Tested on: Vaccinia virus
Assay: Cytopathogenicity against vaccinia virus
Format: functional
Details: Orthopoxvirus vaccinia

## C=CSC[C@H]1OC(n2cnc3c(N)ncnc32)[C@H](O)[C@@H]1O (stereo partly specified)
  MIC: 30 µM (≈ 9.28 µg/mL)
